Each structure is given as a SMILES string. “And” between values parts separate entries of the source, which are not always exact repeats. Equal entries are not always repeated.

One data set deals with A7r5. Description: Inhibition of intracellular ROS induced by H2O2 (H2DCFDA) in A7r5. It counts as cell-based. The note with it: Rattus norvegicus. As to the method: Measurement of intracellular ROS (Reactive Oxygen Species) was determined using H2DCFDA (2',7'-dichlorodihydrofluorescein diacetate, Molecular Probes, Eugene, OR, USA). H2DCFDA is a non-polar compound that readily diffused into cells, where it is hydrolyzed by intracellular esterase to polar derivative H2DCF (2',7'-dichlorodihydrofluorescein) which can not cross the cell membrane, and thereby trapped within the cell. H2DCF is low-fluorescent, but converted to high-fluorescent DCF (2',7'-dichlorofluorescein) by intracellular ROS. Therefore, the intracellular ROS formation can be determined from the amount of converted DCF. HUVEC (Human umbilical Vascular Endothelial Cells) or A7r5 (Rat thoracic aorta smooth muscle cells) were used. HUVEC were cultured in Kaighn's F12K medium supplemented with 10% heat-inactivated FBS, 0.1 mg/ml heparin sodium, 0.03-0.05 mg/ml ECGS (Endothelial cell growth supplement) and 1% antibiotics, and A7r5 were cultured in DMEM supplemented with 10% heat inactivated FBS and 1% antibiotics. To measure the intracellular ROS, HUVEC or A7r5 were preincubated for 30 min in the presence of test compounds (10^-7-10^-5 M). Thereafter, cells were stimulated with H2O2 (10^-6 and 10^-5 M for 20 min), and then incubated in the dark for 2 hr at 37 °C in 50 mM phosphate buffer (pH 7.4) containing 5 uM H2DCFDA. The quantity of DCF fluorescence (485 nm excitation, 530 nm emission) was measured using Fluorescence plate reader (FL600, Biotek Instruments).

The test system of another data set is diabetic rats. Description: Nociceptive test (hot plate test) in diabetic rats. The class given is in vivo. Conditions: 50 °C hot plate. As to the method: Effects on nociceptive responses of test compounds in rats were examined using hot plate. The same methods were applied for the induction of diabetes and treatment of test compound in rats. Rats were placed onto 50 °C hot plate, then latencies of nociceptive action such as licking were determined. The recovery (%) of nociceptive responses in diabetic rats was calculated according to the following mathematical […]. [Mathematical formula 5] Recovery(%) =(Response in treated group - Response in diabetic control)/(Response in normal control-Response in diabetic control)x100 [formula]

Data set [1] deals with brain ischemia-reperfusion in Sprague-Dawley rats. Description: Protection against brain damage induced by brain ischemia-reperfusion. As to the method:
Male Sprague-Dawley rats (350±50 g, SamYook Experimental Animals Co., Korea) were anesthetized by the injection of pentobarbital sodium at a dose of 40 mg/kg, after which the femoral vein and the artery were cannulated with PE-10 while the left carotid artery was exposed. Five min. before the operation, 20 ug/kg of heparin sulfate was injected into the peritoneal cavity. For the continuous measurement of arterial pressure, with a insertion of a blood pressure measuring device into the femoral artery. About 10 ml of blood was taken from the femoral vein to reduce the blood pressure down to 30 mmHg. If the blood pressure is not reduced to less than 100 mmHg with a withdrawal of 7 ml of blood, the rats are considered to have high sympathetic tone.
While the blood pressure was maintained at 30 mmHg, the exposed left carotid artery was occluded for 20 min by an aneurysm clamp to cause cerebral ischemia. Then, the carotid clamps were removed and the extracted blood was reinfused. To minimize the systemic acidosis, the rats were reinfused with 5 ml of saline containing 0.84% bicarbonate sodium (bicarbonate saline). During operation and restoration period, body temperature was maintained at 37±0.5 °C with the aid of a thermal blanket and incandescent light bulbs. During their restoration from the operation, the body temperature was kept constant for 2 hours or more. […]
24 hours after the operation, the rats were sacrificed with a scaffold and the brain was removed rapidly (3 min). […] After photographs were taken of the stained sections, developed and printed, the percentages of the infarcted brain areas to the total brain were measured and analyzed using an image analyzing program (Image-Pro Plus ver. 3.0.1). […]
The protective effects of the test compounds on the brain damage caused by brain ischemia-reperfusion were expressed as a reduction percentages of infarcted brain areas compared with those of the control group.

In the next data set the test system is newborn rats. Description: Protection against hypoxic brain injury in newborn rats (proton MRS). The class given is in vivo. The note with it: 50mg/Kg intraperitoneally 1 hr before hypoxia; proton MRS 1 day after injury. From the text:
Focal, hypoxic brain injury model in newborn rats are being most frequently used to study infant asphyxia, because whose maturity of brain is similar to that of human infant, and it is easy to get enough number of animals required for the determination of effects. It was reported that the lipid peak was increased in MRS (magnetic resonamce spectroscopy) by ischemic neuronal cell injury due to the destruction of cell membrane including blood-brain barrier [A. Bizzi et. al., Magnetic Resonance Imagin 14 581-592 (1996)], and also the concentration of lipid and apotosis are closely correlated to apotosis [Van der A. Toorn et al., Magnetic Resonamce in Medicine, 36 , 914-922 (1996)]. N-Acetylaspartae (NAA) and creatine (Cr) are markers of neuronal cells. Then it was confirmed that the value of lipid/NAA (N-acetylaspartae) and lipid/Cr (creatine) are correlated with the morphological change and severity of apoptosis on hypoxic brain damage.
New born rats (within 7 days, 10-15 g) were placed in hypoxic chamber for 2 hr to induce hypoxia, and test compounds were intraperitoneally injected before 1 hr of hypoxia. Proton MRS was obtained at 1 day after brain injury, then the value of lipid/NAA and lipid/Cr were determined.

Data set [2] is described as follows: ORAC (oxygen-radical absorbance capacity) assay. The class given is biochemical. Conditions: 1 ORAC unit = net protection by 1 uM Trolox. The procedure:
The method utilized β-PE (β-phycoerythrin) as an indicator protein, and AAPH (2,2'-azobis(2-amidinopropane) dihydrochloride) as a peroxy radical generator. Reaction mixtures consisted of test compounds (10^-6M and 10^-4M), β-PE (1.76 x 10^-8M), and AAPH (3 x 10^-3 M) in 75 mM phosphate buffer (pH 7.0). A final volume of 2 ml was used in 24 well plates. Test compounds were first dissolved in acetone and then added to the reaction mixture. Once AAPH was added, the reaction was initiated at 37 °C and the fluorescence (485 nm excitation, 590 nm emission) was measured every 5 min using Fluorescence reader (FL600, Biotek Instrument). The ORAC units were calculated based on the area under the fluorescence curve of β-PE in the presence of the test compound compared to the area generated by 1 uM Trolox. 1 ORAC unit represents the net protection provided by 1 uM Trolox.

As for `COC(OC)[C@@]1(C)Oc2ccc([N+](=O)[O-])cc2[C@H](NC(=NC#N)NCc2ccccc2)[C@H]1O` [Example 24, (2S, 3R, 4S)-N''-cyano-N-(6-nitro-3,4-dihydro-3-hydroxy-2-methyl-2-dimethoxymethyl-2H-benzopyran-4-yl)-N'-benzylguanidine], in the data set on A7r5 (A7r5, Conc. 10^-5 M, read-out: Inhibition (%) H2O2 (10^-6M)), the inhibition at 10 µM is 185%. Also, the inhibition at 1 µM in the data set with A7r5 (A7r5, Conc. 10^-6 M) stood at 111%. The inhibition at 0.1 µM in the data set with A7r5 (A7r5, Conc. 10^-7 M, read-out: Inhibition (%) H2O2 (10^-6M)) worked out at 72%.
`COC(OC)[C@@]1(C)Oc2ccc(N)cc2[C@@H](NC(=NC#N)NCc2ccccc2)[C@@H]1O` [Example 40, (2S, 3S, 4R)-N''-cyano-N-(6 - amino-3,4-dihydro-3-hydroxy-2-methyl-2-dimethoxymethyl-2H-benzopyran-4-yl)-N'-benzylguanidine]: the “Nociceptive response” value with diabetic rats (latency of licking) stood at 4.791 s. For the same molecule, in the data set on diabetic rats (nociceptive responses), the “Recovery (%)” value is 106.5%. The “Infarction Area Reduction(%)” value in data set [1] (Dose 30 mg/kg, compared with the control group) was 42.0%. Also, the “Infarction Area Mean±SD(%)” value in data set [1] (Dose 30 mg/kg, peritoneally, 30 min before and 2, 4, 16 hours after occlusion) is 23.0% and 23.0 ± 3.3%. The side effects result in data set [1] (rat, in vivo, 30 mg/kg) was “did not suffer from any side effects”. For the same molecule, in the data set with newborn rats, the Lipid/Cr was determined as 2.33 and the Lipid/NAA is recorded as 2.51. The molecule further came in with an ORAC units in data set [2] (Conc. 10^-4 M) of 3.250 ORAC units. For the same molecule, the ORAC units in data set [2] (Conc. 10^-6 M) is on record as 2.047 ORAC units.

In general, inhibition refers to the relative decrease from the control value, in per cent.

The values above are taken from patent EP1228058B1, “BENZOPYRANYL GUANIDINE DERIVATIVES, PROCESS FOR PREPARATION THEREOF, AND PHARMACEUTICAL COMPOSITIONS CONTAINING THEM” (Dongbu Hannong Chemical Co., Ltd., priority 1999, dated 2001).
